The values that follow come from patent publication US9801839B2, “Therapeutic method” (Macfarlane Burnet Institute for Medical Research and Public …, priority 2014, dated 2017).

For series [1], the system named is Ect cells. The series is described as follows: Cytokine release in transwells (FlowCytomix bead assay). The series is classed as cell-based, human. The following applies: for IL-6 secretion induced by TLR3 agonist PIC / IL-8 secretion induced by TLR3 agonist PIC / IL-1RA production: 0.3% acid pH 3.9 or media acidified to pH 3.9 with HCl; for IL-1RA production: absence or presence of PIC. On the procedure:
(§1) Cytokines were measured using FlowCytomix assays, utilising the basic reagents kit, in conjunction with simplex kits for IL-6, IL-8 and IL-1RA (eBiosciences).
(§2) Test Procedure • 1. Calculate required volumes of reagents and make standards, bead mixtures and biotin-conjugate as described above. • 2. Add 15 μL of either standard, sample or blank (1× assay buffer) to appropriately labelled tubes. • 3. Add 15 μL of prepared bead mixture to each tube. • 4. Add 30 μL of biotin-conjugate mix to each tube, mix tubes well and incubate at room temp for 2 hours. Protect samples from light with foil. • 5. Prepare Streptavidin-PE mix. • 6. Add 0.6 ml 1× assay buffer to each tube and centrifuge at 200 g for 5 min. • 7. Discard s/n, leaving approx. 100 μL. Repeat for a total of 2 washes. • 8. Add 30 μL of Streptavidin-PE mix to all tubes, mix well and incubate at room temp for 1 hour (protected from light). • 9. Add 0.6 ml 1× assay buffer to each tube and centrifuge at 200 g for 5 min. • 10. Discard s/n, leaving approx. 100 μL. Repeat for a total of 2 washes. • 11. Discard s/n from final wash, leaving 100-200 μL of buffer. Analyse samples on the flow cytometer within 24 hours (preferable the same day as the experiment).
(§3) The following concentrations of TLR agonists (Table 3.) have been used to activate FGT cells either alone of added with LA-containing media for 18-24 hours.

Series [2] concerns vaginal (VK2) epithelial cells.
Series [3] has as its system ectocervical (Ect) epithelial cells.
Series [4] concerns endocervical (End) epithelial cells.
Series [5] relates to Ect cells. Briefly: Cytokine release in transwells (FlowCytomix bead assay). It is filed as cell-based, human. As to conditions: 0.3%.
The next series deals with VK2 cells. The description is as above. The series is classed as cell-based, human. How it is done: (§4) An analysis was performed to determine if physiologic noncytotoxic concentrations of L-LA alter the release of immune modulators by VK2, End and Ect cells by incubating cells in transwells with L-LA for 24 h at 37° C. in serum free keratinocyte medium and harvesting supernatants (from the apical chamber) for release of immune modulators.
as §1, §2, §3

In the next series the test system is End cells. The series is described as above. The series is classed as cell-based, human. How it is done: as §4, §1, §2, §3
The test system of series [6] is epithelial cells from the lower female reproductive tract. Briefly: Cytotoxicity in a standard plate format. The following applies: 0.4% L-lactic acid, standard plate format (data not shown). It is filed as cell-based, human.
Series [7] deals with Ect1 E6/E7 ectocervical epithelial cell line. Briefly: Cyto/chemokine analysis (Procartaplex, Luminex) after 1 hour treatment. The series is classed as cell-based, human. As to conditions: Ect; for IL-1RA production from cells stimulated with PIC, acid alone / PIC-induced cytokine production, acid alone: 0.03% benzoic acid or 0.15% citric acid; for PIC-induced cytokine production, acid alone: compared with low pH alone (HCl); for LA-induced production of IL-1RA in the presence of the acid: 0.3% LA with 0.03% benzoic acid or 0.15% citric acid; for IL-1RA production, no TLR agonist / IL-6 basal production, no TLR agonist: 1 hour treatment at pH 3.9 (acids at various concentrations, gels diluted to about 0.3% LA), supernatant after 18 hours; for other immune mediators (IL-8, MIP3α, TNF, IL-1B, RANTES), no TLR agonist: 1 hour treatment at pH 3.9, not shown; for LA inhibition of PIC-induced IL-8, IL-6 and TNF in the presence of the acid: PIC and 0.3% LA with 0.03% benzoic acid or 0.15% citric acid.

In series [8] the test system is primary ectocervical cells. The series is described as follows: Cytokine/chemokine production by primary cells in transwells. It is filed as cell-based, human. As to conditions: 0.3% LA, PIC or both. An excerpt:
Culture of Human Primary Ectocervical Cells in Transwells. To further qualify the data in Example 9, we repeated the experiment with primary ectocervical cells.

Series [9] deals with human female reproductive tissue. The following applies: low pH; cited from earlier work.
The subject of series [10] is Ect1 E6/E7 ectocervical epithelial cell line. The series is described as follows: Viability (MTS) 18 hours after 1 hour treatment. As to conditions: range of concentrations, pH 3.9, 1 hour incubation, read 18 hours later.
Experimental: The human ectocervical epithelial cell line Ect1 E6/E7 was utilized for these experiments. Cells were cultured and treated in serum free keratinocyte media (SFKM) containing supplements as per ATCC recommendations. Cells were seeded in 6 mm transwell inserts at a density of 100,000 cells per well, and cultured for 7 days prior to treatment. […] Cytokine-containing supernatants were collected and stored at −80° C. for future analysis and cell viability assessed via MTS assay as per manufacturer's recommendations.
NOTE: The pH of all treatment media containing gels/acids was adjusted to pH 3.9 (to match that of 0.3% LA) prior to treatment. This was performed to ensure that a similar concentration of protonated LA, the active form of LA, was compared. A pH control (media adjusted to pH 3.9 with HCl) was included to determine the effect of low pH alone.
Due to the poor buffering capacity of HCl, treatments containing HCl were refreshed every 20 min during the 1 hour treatment time to ensure the low pH of the treatment media was maintained.
Where [11] appears, read: 0.3% acid (pH 3.9) or low pH alone (pH 3.9 with HCl).
Setting [12] is: added to the apical medium in the transwell system, 24 hr.
[13] abbreviates: 0.3% in apical medium, pH 3.9, 24 h.
The mark [14] stands for this setting: 0.3%, pH 3.9, absence or presence of PIC.
Setting [15] is: PIC 1 hour with 0.3% LA or gels diluted to about 0.3% LA, pH 3.9.

Each structure is given as a SMILES string. Entries after “also recorded” stand apart in the source; their conditions may differ. Structures can show the parent of a compound that is named as a salt.

For `Cl` [HCl, Hydrochloric acid, reference compound], in the series with Ect cells [1], the “IL-6 secretion induced by TLR3 agonist PIC” value (“IL-6 secretion induced” for short) was “neither neutralised L-LA nor HCl acidified media had any significant effect”, the “IL-8 secretion induced by TLR3 agonist PIC” value (shortened to “IL-8 secretion induced”) is “neither neutralised L-LA nor HCl acidified media had any significant effect” and the IL-1RA production entry is listed as “neither neutralised L-LA nor HCl acidified media had any significant effect”. Besides, the “effect on cell viability” value in series [2] (setting [11]) was “non-toxic”. In series [3] (setting [11]), the “effect on cell viability” value is recorded as “non-toxic”. Besides, in series [4] (setting [11]), the “effect on cell viability” value is listed as “non-toxic”.
In the case of `C[C@@H](O)C(=O)O` [D-LA, D-(−)-lactic acid], in the series with Ect cells [1], the “IL-6 secretion induced” value is “reduce secretion”, the “IL-8 secretion induced” value was “reduce secretion” and the IL-1RA production entry is “increase IL-1RA production”.
For `C[C@H](O)C(=O)O` [L-LA, L-(+)-lactic acid], the “IL-6 secretion induced” value is listed as “reduce secretion; also recorded: reduced the production” in the series with Ect cells [1], “reduces secretion” in the series on VK2 cells (setting [13]) and “reduces secretion” in the series on End cells (setting [13]). Also, the “IL-8 secretion induced” value in the series on Ect cells [1] is listed as “reduce secretion; also recorded: reduced the production”; with VK2 cells (setting [13]), “reduces secretion”; with End cells (setting [13]), “reduces secretion”. The IL-1RA production entry is listed as “induces IL-1RA production; also recorded: increase IL-1RA production; also recorded: significant increase” in the series with Ect cells [1], “induces IL-1RA production” in the series on VK2 cells (setting [14]) and “induces IL-1RA production” in the series with End cells (setting [14]). Also, the “decreasing levels of proinflammatory cytokines (IL-6, IL-8) induced by PIC, neutralised” value with Ect cells [1] (0.3% at pH 7.4) is given as “neither neutralised L-LA nor HCl acidified media had any significant effect”. In addition, in the series with Ect cells [1] (0.3% at pH 7.4), the “increasing the production of IL-1RA, neutralised” value is on record as “neither neutralised L-LA nor HCl acidified media had any significant effect”. Further, in the series on Ect cells [1] (0.3% with or without PIC for 0.5, 1 or 18 hrs, cytokines measured at 18 hrs), the “treatment time sufficient for the effects on IL-1RA, IL-6, IL-8, TNFα, RANTES and MIP3α” value was found to be 30 min. For the same molecule, the “IL-1RA production with Pam3Ck (TLR2) and lipopolysaccharide (TLR4)” value is reported as “same result” in the series with Ect cells [1] (0.3%, pH 3.9); “same result” in the series on VK2 cells (0.3%, pH 3.9); “same result” in the series on End cells (0.3%, pH 3.9). In addition, the “L-lactic acid concentrations tolerated” value in [2] (setting [12]), in [3] (setting [12]) and in [4] (setting [12]) was “up to 0.4%” each time. In addition, in the series with Ect cells [5], the “MIP3α production induced by TLR agonist (PIC)” value is “reduced the production”. Further, the “RANTES production induced by TLR agonist (PIC)” value with Ect cells [5] is reported as “reduced the production”. In the series on Ect cells [5], the “TNFα production induced by TLR agonist (PIC)” value is “reduced the production”. In addition, the “cytotoxicity in standard plate format” value in series [6] is given as “highly cytotoxic”.
For `O=C(O)CC(O)(CC(=O)O)C(=O)O` [citric acid, Citric acid], in [7], the “IL-1RA production from cells stimulated with PIC, acid alone” value is reported as “neither citric nor benzoic acid altered”; the “PIC-induced cytokine production, acid alone” value is recorded as “did not appear to alter”; the “LA-induced production of IL-1RA in the presence of the acid” value is recorded as “largely preserved”; the “IL-1RA production, no TLR agonist” value is recorded as “Neither acid was associated with an altered expression”. For the same molecule, in series [7], the “IL-6 basal production, no TLR agonist” value was “Neither acid was associated with an altered expression”; the “other immune mediators (IL-8, MIP3α, TNF, IL-1B, RANTES), no TLR agonist” value is recorded as “similarly unaltered”; the “LA inhibition of PIC-induced IL-8, IL-6 and TNF in the presence of the acid” value is “persists”. For the same molecule, the “IL-1RA production, acid in combination with PIC and LA” value in series [7] (0.15% citric acid, compared to cells stimulated with LA and PIC) was “reduced production”.
Turning to `CC(O)C(=O)O` (centres unmarked) [LA, lactic acid], the “production of IL-1RA, IL-6, IL-8, TNFα, RANTES and MIP3α” value in [8] is “trend similar to that of LA treatment of cells lines”. Also, the “inflammatory activity on human female reproductive tissue” value in series [9] is “pro-inflammatory”. Further, the “IL-1β production, no TLR agonist” value in series [7] (1 hour treatment, levels below the limit of detection (data not shown)) is recorded as “small increase”. In series [7] (setting [15]), the “PIC-induced production of IL-6” value was “inhibits”, the “PIC-induced production of IL-8” value is reported as “inhibits” and the “PIC-induced production of TNF” value was “inhibits”.
Take `O=C(O)c1ccccc1` [benzoic acid, Benzoic acid]: the “viability of Ect cells, acid excipients” value in series [10] is “Neither benzoic nor citric acid had any significant effect”. Moreover, in series [7], the “IL-1RA production from cells stimulated with PIC, acid alone” value is given as “neither citric nor benzoic acid altered”; the “PIC-induced cytokine production, acid alone” value is reported as “did not appear to alter”; the “LA-induced production of IL-1RA in the presence of the acid” value is “largely preserved”; the “IL-1RA production, no TLR agonist” value is “Neither acid was associated with an altered expression”. Moreover, in series [7], the “IL-6 basal production, no TLR agonist” value was “Neither acid was associated with an altered expression”; the “other immune mediators (IL-8, MIP3α, TNF, IL-1B, RANTES), no TLR agonist” value was “similarly unaltered”; the “LA inhibition of PIC-induced IL-8, IL-6 and TNF in the presence of the acid” value is “persists”.
